Consider three compounds from ChEMBL document CHEMBL5649166, “RIP3 induces apoptosis independent of pronecrotic kinase activity” (Mol Cell, 2014).

In test [1] the target is Mitogen-activated protein kinase kinase kinase kinase 4 (Homo sapiens) (UniProt O95819). Put plainly: Inhibition of human HGK/MAP4K4 using myelin basic protein as substrate at 1 uM in presence of 32P-ATP by Hotspot assay relative to control; values are per cent of control.
The target of test [2] is Cyclin-dependent kinase 2/cyclin E1 (Homo sapiens) (UniProt P24864+P24941). Put plainly: Inhibition of human CDK2/cyclin E using RB Protein as substrate at 1 uM in presence of 32P-ATP by Hotspot assay relative to control; values are per cent of control.
Test [3] is filed under the species Homo sapiens. Put plainly: Inhibition of human TAOK2/TAO1 using myelin basic protein as substrate at 1 uM in presence of 32P-ATP by Hotspot assay relative to control; values are per cent of control.
Test [4] has as its target Dual specificity tyrosine-phosphorylation-regulated kinase 1B (Homo sapiens) (UniProt Q9Y463). Kind of test: Inhibition of human DYRK1B using RRRFRPASPLRGPPK as substrate at 1 uM in presence of 32P-ATP by Hotspot assay relative to control; values are per cent of control.
Test [5] has as its target Vascular endothelial growth factor receptor 2 (Homo sapiens) (UniProt P35968). Kind of test: Inhibition of human KDR/VEGFR2 using poly[Glu:Tyr] (4:1) as substrate at 1 uM in presence of 32P-ATP by Hotspot assay relative to control; values are per cent of control.
The target in test [6] is Cyclin-dependent kinase 4/cyclin D1 (Homo sapiens) (UniProt P11802+P24385). Kind of test: Inhibition of human CDK4/cyclin D1 using RB Protein as substrate at 1 uM in presence of 32P-ATP by Hotspot assay relative to control; values are per cent of control.
Test [7] concerns the target Activin receptor type-1-like (Homo sapiens) (UniProt P37023). Put plainly: Inhibition of human ALK1/ACVRL1 using casein as substrate at 1 uM in presence of 32P-ATP by Hotspot assay relative to control; values are per cent of control.
Test [8] concerns the target Angiopoietin-1 receptor (Homo sapiens) (UniProt Q02763). Put plainly: Inhibition of human TIE2/TEK using poly[Glu:Tyr] (4:1) as substrate at 1 uM in presence of 32P-ATP by Hotspot assay relative to control; values are per cent of control.
Test [9] has as its target Casein kinase I isoform epsilon (Homo sapiens) (UniProt P49674). Kind of test: Inhibition of human CK1epsilon using KRRRAL[pS]VASLPGL as substrate at 1 uM in presence of 32P-ATP by Hotspot assay relative to control; values are per cent of control.
Test [10] concerns the target Serine/threonine-protein kinase 24 (Homo sapiens) (UniProt Q9Y6E0). Kind of test: Inhibition of human MST3/STK24 using myelin basic protein as substrate at 1 uM in presence of 32P-ATP by Hotspot assay relative to control; values are per cent of control.
For test [11], the target named is T1, Calcium/calmodulin-dependent protein kinase type IV (Homo sapiens) (UniProt Q16566).
T1 sequence (whole entry): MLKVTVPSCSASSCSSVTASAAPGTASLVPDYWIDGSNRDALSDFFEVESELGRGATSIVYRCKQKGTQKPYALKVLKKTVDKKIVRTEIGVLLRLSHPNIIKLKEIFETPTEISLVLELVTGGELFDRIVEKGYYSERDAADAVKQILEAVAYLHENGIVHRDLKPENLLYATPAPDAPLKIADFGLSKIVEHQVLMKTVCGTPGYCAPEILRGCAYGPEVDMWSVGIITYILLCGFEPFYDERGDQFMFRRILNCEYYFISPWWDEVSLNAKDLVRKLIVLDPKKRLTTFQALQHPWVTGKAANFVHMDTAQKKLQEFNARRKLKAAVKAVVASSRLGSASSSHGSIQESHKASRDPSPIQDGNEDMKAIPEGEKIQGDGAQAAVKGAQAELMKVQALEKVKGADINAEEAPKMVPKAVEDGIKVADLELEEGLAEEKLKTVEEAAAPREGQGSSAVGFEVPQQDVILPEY
Kind of test: Residual activity of human CAMK4 using KKLNRTLSFAEPG as substrate at 1 uM in presence of 32P-ATP by Hotspot assay relative to control.

Test [12] deals with Casein kinase I isoform gamma-1 (Homo sapiens) (UniProt Q9HCP0). Kind of test: Inhibition of human CK1g1 using KRRRAL[pS]VASLPGL as substrate at 1 uM in presence of 32P-ATP by Hotspot assay relative to control; values are per cent of control.
Sequence of Casein kinase I isoform gamma-1 (Homo sapiens) (Q9HCP0 whole entry, looked up, canonical isoform): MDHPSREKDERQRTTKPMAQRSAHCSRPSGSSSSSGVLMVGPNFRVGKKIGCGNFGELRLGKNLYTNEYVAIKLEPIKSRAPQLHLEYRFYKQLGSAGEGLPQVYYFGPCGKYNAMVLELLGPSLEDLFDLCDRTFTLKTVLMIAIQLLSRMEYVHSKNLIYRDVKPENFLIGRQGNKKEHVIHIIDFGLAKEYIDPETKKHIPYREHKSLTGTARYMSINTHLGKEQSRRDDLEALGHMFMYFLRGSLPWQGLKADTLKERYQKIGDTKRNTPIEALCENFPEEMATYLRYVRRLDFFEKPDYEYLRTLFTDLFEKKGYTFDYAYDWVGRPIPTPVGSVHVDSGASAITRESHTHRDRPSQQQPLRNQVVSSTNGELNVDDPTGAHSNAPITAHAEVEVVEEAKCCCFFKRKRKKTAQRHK
In test [13] the target is Protein kinase C alpha type (Homo sapiens) (UniProt P17252). Kind of test: Inhibition of human PKCa using ERMRPRKRQGSVRRRV as substrate at 1 uM in presence of 32P-ATP by Hotspot assay relative to control; values are per cent of control.
For test [14], the target named is T2, Inhibitor of nuclear factor kappa-B kinase subunit epsilon (Homo sapiens) (UniProt Q14164).
T2 sequence (whole entry): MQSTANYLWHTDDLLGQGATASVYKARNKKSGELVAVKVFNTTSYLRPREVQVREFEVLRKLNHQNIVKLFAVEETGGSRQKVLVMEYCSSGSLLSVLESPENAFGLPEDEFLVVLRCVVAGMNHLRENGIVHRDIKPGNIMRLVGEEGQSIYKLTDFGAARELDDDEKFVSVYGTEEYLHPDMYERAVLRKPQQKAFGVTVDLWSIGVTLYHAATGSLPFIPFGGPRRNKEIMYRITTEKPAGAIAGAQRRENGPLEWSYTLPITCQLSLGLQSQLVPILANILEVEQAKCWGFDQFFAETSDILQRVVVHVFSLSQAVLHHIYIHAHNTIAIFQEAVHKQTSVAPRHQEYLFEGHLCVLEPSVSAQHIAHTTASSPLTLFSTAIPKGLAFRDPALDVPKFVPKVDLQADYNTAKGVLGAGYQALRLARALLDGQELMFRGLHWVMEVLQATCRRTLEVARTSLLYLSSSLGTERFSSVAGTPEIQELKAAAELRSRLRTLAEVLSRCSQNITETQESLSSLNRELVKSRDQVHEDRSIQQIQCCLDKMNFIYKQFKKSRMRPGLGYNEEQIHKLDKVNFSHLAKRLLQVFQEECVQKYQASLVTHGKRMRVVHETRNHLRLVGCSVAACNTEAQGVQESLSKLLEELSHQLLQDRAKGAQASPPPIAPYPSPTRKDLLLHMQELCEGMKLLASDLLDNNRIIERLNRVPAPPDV
Kind of test: Inhibition of human IKKe/IKBKE using casein as substrate at 1 uM in presence of 32P-ATP by Hotspot assay relative to control; values are per cent of control.

Sequence of Casein kinase I isoform epsilon (Homo sapiens) (P49674 whole entry, looked up, canonical isoform): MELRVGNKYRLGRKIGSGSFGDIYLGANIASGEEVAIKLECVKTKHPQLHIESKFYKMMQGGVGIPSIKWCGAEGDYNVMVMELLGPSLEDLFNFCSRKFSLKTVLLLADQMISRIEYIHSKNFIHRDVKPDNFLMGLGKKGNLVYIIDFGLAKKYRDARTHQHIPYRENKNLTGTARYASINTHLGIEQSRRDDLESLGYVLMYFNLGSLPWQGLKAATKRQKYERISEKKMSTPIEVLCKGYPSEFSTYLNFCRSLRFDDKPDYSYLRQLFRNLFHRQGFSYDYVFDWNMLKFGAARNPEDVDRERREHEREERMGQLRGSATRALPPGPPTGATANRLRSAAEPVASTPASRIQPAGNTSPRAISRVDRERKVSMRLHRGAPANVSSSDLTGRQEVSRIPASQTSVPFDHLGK
Sequence of Serine/threonine-protein kinase 24 (Homo sapiens) (Q9Y6E0 whole entry, looked up): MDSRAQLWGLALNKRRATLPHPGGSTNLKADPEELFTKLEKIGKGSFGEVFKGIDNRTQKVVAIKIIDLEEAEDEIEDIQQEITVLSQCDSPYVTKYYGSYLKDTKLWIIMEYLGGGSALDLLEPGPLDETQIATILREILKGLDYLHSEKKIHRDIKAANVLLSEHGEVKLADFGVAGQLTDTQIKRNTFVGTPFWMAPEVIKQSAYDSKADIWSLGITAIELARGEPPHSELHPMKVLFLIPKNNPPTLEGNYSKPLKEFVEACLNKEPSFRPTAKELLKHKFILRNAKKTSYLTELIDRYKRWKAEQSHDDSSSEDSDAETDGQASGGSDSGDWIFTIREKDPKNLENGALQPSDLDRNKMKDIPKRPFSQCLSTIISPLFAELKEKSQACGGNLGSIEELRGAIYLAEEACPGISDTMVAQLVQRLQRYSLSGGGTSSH
Sequence of Angiopoietin-1 receptor (Homo sapiens) (Q02763 whole entry, canonical isoform): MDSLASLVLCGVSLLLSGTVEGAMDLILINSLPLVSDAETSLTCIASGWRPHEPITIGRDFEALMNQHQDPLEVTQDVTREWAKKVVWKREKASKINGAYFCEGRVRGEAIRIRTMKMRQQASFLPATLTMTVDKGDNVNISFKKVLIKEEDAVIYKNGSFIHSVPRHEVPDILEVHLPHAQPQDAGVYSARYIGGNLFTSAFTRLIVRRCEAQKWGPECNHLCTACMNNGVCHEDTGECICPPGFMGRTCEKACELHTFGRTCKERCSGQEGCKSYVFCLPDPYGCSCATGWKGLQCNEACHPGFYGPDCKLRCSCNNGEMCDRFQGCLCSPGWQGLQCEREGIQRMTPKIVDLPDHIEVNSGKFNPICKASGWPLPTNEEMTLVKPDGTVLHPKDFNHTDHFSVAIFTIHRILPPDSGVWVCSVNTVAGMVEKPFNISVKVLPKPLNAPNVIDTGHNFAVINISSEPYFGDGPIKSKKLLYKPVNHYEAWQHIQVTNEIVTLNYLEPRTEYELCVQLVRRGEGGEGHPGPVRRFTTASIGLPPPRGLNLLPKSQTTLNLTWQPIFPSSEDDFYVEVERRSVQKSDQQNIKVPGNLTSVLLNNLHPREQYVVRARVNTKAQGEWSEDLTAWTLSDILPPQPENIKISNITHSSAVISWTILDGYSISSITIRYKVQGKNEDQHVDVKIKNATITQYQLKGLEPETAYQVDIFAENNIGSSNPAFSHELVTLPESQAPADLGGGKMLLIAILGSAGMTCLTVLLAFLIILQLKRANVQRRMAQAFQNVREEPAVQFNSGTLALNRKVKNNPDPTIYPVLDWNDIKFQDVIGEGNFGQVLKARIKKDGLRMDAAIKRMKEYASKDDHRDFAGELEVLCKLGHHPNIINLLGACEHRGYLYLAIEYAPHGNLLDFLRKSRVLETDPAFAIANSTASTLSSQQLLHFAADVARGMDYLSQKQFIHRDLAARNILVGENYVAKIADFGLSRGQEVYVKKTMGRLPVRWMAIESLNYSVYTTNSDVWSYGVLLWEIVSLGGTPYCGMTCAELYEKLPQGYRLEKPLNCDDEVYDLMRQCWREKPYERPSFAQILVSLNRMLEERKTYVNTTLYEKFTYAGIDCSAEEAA
Sequence of Activin receptor type-1-like (Homo sapiens) (P37023 whole entry): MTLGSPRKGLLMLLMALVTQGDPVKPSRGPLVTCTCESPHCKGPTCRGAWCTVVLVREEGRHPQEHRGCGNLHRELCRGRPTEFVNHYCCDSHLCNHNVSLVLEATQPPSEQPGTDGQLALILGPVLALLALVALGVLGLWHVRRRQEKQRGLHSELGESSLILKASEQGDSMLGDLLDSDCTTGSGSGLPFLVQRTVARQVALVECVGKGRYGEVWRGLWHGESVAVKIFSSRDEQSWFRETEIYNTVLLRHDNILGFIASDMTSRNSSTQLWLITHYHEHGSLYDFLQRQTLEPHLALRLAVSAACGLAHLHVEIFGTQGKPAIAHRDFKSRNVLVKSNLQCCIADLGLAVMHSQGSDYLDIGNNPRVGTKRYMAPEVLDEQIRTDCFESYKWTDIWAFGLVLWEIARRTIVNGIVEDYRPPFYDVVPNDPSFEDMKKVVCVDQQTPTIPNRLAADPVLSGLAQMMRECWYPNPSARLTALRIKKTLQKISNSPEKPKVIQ
Sequence of Dual specificity tyrosine-phosphorylation-regulated kinase 1B (Homo sapiens) (Q9Y463 whole entry, looked up): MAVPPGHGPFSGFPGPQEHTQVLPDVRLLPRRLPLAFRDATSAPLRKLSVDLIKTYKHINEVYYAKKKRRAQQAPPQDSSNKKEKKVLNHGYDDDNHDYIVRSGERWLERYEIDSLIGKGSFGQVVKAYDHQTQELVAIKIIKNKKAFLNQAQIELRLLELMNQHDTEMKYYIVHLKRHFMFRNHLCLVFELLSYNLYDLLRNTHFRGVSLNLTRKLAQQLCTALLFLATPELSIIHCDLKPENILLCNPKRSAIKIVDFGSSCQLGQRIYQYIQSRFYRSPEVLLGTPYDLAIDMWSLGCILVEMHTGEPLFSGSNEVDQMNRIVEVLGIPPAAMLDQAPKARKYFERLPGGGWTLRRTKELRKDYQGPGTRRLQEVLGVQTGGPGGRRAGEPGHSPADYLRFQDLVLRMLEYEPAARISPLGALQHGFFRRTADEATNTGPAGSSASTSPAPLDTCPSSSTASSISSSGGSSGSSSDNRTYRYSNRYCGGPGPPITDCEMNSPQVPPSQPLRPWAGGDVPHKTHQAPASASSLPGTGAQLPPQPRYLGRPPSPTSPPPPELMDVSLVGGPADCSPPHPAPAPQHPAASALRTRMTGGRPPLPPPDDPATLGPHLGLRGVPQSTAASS

As to `Cc1cc(-c2cnc(N)c3c(-c4ccc5scnc5c4)csc23)n(C)n1`, the residual activity in test [1] worked out at 21.2%; in test [2], 94.8%; in [3] it was 97.1%; in test [4], 99.5%; in test [5] it was 59.8%; in [6], 105%. Also, the residual activity in [7] was 93.9%; in [8] it was 94.2%; in test [9] it was 73%; in test [10], 93.9%; in test [11], 88.6%; in test [12], 94.2%. Moreover, the residual activity turned out to be 80.8% in test [13] and 97.9% in test [14].

Consider `CC(C)S(=O)(=O)c1ccc2nccc(Nc3ccc4scnc4c3)c2c1`, for which the residual activity in test [1] came to 83%; in test [2] it was 87.7%; in test [3], 93.4%; in test [4], 100%; in test [5] it was 17.4%; in test [6] it was 95.2%. For the same compound, the residual activity in [7] worked out at 102%; in test [8], 98.7%; in test [9] it was 106%; in [10], 100%; in [11], 91%; in [12], 103%. Further, the residual activity was 80.2% in test [13] and 97.7% in [14].

On to `CNC(=O)c1ccc2c(c1)ncn2-c1ccc(CC(=O)OC(C)(C)C)cc1`, for which the residual activity in [1] came out at 102%; in [2], 104%; in test [3] it was 102%; in test [4], 98.4%; in [5], 78.7%; in [6] it was 96.8%. Also, the residual activity is 95.4% in [7]; 87.2% in [8]; 94.2% in [9]; 94% in [10]; 91.8% in test [11]; 97.1% in test [12]. Further, the residual activity in test [13] was determined as 107%; in test [14], 100%.
